In PMC11335189, “Revealing molecular determinants governing mambalgin-3 pharmacology at acid-sensing ion channel 1 variants” (Cellular and Molecular Life Sciences: CMLS, 2024):
Positions of bridges follow the written chain, without caps; N, C: chain ends. No end group written: not given here.

Tested on: rASIC1a: rASIC1b chimera C92
Experiment: TEVC oocytes, rASIC1a: rASIC1b chimera C92
Assay type: cell-based, rat
Conditions: conditioning pH 7.45, stimulating pH 5
Description: Two-electrode voltage-clamp (TEVC) experiments using Xenopus laevis oocytes were conducted as previously described. Briefly, oocytes were surgically removed from anaesthetised female frogs, then treated with collagenase (~ 1 mg/ml, Sigma type I) for 2 h under agitation at room temperature. cRNAs were synthesised using a mMessage mMachine T7 or SP6 transcription kit (Thermo Fisher Scientific Australia Pty Ltd, Scoresby, VIC, Australia) and injected into healthy stage V–VI oocytes at 0.2–20 ng per cell. […] Membrane currents were recorded 2–7 days after cRNA-injection under voltage-clamp at -60 mV (Axon Axoclamp 900 A, Molecular Devices, CA, USA) using two standard glass microelectrodes of 0.5–1 MΩ resistance when filled with 3 M KCl solution. […]
Specific to this work, the standard protocol was for oocytes to be conditioned at pH 7.45 and channels stimulated every 60 s using a 5 s pH 5 or 6 application, unless stated otherwise. […] Activation curves were determined by conditioning oocytes at pH 8 (Fig. 2e − g; and Fig. 5a and b) or 7.45 (Fig. 6; and Supplementary Fig. 2d and c) for 55 s and applying low pH stimuli from 7.25 to 5.0 for 5 s. Steady-state desensitisation (SSD) was determined by applying conditioning solutions of pH values from 8 to 6 for 115 s prior to stimulation by a pH drop to 5 for 5 s. […] Control pH-dependence curves were determined in the absence of any Ma-3. […]

H-SLKCYQHGKVVTCHRDMKFCYHNIGMPFRNLKLILQGCSSSCSETENNKCCSTDRCNK (disulfide 4-20, 13-38, 42-50, 51-56 (inferred)) [Ma-3, mambalgin-3]
activity of 300 nM Ma-3: only partially inhibited
